Data published in US20230112958A1, “Smart Drug Delivery System and Pharmaceutical Kit for Dual Nuclear Medical Cytotoxic Theranostics” (SCV-SpezialChemikalienVertrieb GmbH, priority 2019, published 2023).
Like-named read-outs stand apart in the source and are kept apart here. Non-standard residues stand in square brackets, D forms with d. Residues, ends and D or L forms follow the SMILES beside them. *: point of attachment. Dolaproine = CO[C@@H]([C@@H]1CCCN1)[C@@H](C)C(=O)O; Dil = CC[C@H](C)[C@H](NC)[C@@H](CC(=O)O)OC; X1 = C[C@@H](N*)[C@@H](O)c1ccccc1; NMeV = CN[C@H](C(=O)O)C(C)C

Key:
LNCaP tumor = system: LNCaP tumor; parameters: species or system Balb/c mice; conditions: mouse, in vivo
Method: DATA.QS.KuE was labeled with ^68Ga and tested in vivo on LNCaP tumor-carrying Balb/c mice. […] The selectivity of binding was determined by means of competitive co-injection of the PSMA inhibitor PMPA. […] FIGS. 10a and 10b show the maximum-intensity projections from μPET studies with [^68Ga]-PSMA-11 and, respectively, [^68Ga]-DATA.QS.KuE in LNCaP tumor-carrying Balb/c. FIGS. 11a and 11b Showtime-activity curves of [^68Ga]-PSMA-11 and, respectively, [^68Ga]-DATA.QS.KuE. […] In the case of treatment with highly ionizing radionuclides, for example ^177Lu, rather than ^68Ga, DATA.QS.KuE enables a crucial reduction in nephrotoxicity.

LNCaP cells = test: CellTiter Blue cytotoxicity assay; assay type: cell-based; conditions: for IC50: 72 hours incubation, read-out: IC50 (cytotoxic action in vitro)
Method: In a CellTiter Blue assay, LNCaP cells were incubated with the substance to be studied for 72 hours, and then the IC50 of the compound was determined.

PSMA = molecular target: T1, PSMA (Homo sapiens, UniProt Q04609); test: Cell-based competitive PSMA binding assay on LNCaP cells against reference 68Ga[Ga]PSMA-10
T1 construct: incubated in the wells with the LNCaP cells for 45 min; endogenous in cells; host or cells: LNCaP cells
Method: By means of a cell-based assay, the affinity of the target vector-linker units QS.KuE, QS.K.EuE and KuE with a lipophilic linker—analogously to PSMA-617—and the affinity of the substructures NH2.DOTAGA.617.KuE and NH2-DOTAGA.QS.KuE was determined. In addition, the PSMA affinity of the structure MMAE.ValCit.QS.617.KuE which is preferred in accordance with the invention (see scheme 30) was determined.
For the essay, LNCaP cells were pipetted into multiwell plates (Merck Millipore Multiscreen™). The compounds to be analyzed were each admixed with a defined amount or concentration of the reference compound ^68Ga[Ga]PSMA-10 with a known Kd value and incubated in the wells with the LNCaP cells for 45 min. After repeated washing, the cell-bound activity was determined.
In order to determine non-specific binding, all compounds were additionally admixed with an excess of the PSMA inhibitor 2-PMPA (2-(phosphonomethyl)-[…]) and subjected to the same LNCaP assay—as described above.

T1 sequence (Q04609 whole entry): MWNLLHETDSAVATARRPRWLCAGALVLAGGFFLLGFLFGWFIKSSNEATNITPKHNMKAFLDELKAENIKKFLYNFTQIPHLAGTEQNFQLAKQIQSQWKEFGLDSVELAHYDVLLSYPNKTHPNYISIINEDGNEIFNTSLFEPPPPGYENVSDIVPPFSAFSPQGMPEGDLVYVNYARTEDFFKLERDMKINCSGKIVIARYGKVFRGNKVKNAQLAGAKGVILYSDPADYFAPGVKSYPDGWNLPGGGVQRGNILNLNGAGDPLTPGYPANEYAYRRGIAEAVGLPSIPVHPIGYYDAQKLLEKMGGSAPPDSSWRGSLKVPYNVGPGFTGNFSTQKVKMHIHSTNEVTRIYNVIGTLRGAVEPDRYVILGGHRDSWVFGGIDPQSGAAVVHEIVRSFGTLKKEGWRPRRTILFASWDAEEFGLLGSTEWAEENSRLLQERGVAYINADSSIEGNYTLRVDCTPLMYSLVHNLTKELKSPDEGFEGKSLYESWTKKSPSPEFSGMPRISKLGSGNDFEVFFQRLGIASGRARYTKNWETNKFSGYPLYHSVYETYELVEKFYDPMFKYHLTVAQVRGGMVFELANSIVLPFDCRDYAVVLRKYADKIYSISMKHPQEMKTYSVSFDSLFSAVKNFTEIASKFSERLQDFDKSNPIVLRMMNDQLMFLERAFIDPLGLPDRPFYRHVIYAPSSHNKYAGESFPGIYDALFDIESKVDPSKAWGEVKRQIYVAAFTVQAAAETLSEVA

## CN(CC(=O)O)C1(CCCCC(=O)NCCNc2c(NCCCC[C@H](NC(=O)N[C@@H](CCC(=O)O)C(=O)O)C(=O)O)c(=O)c2=O)CN(CC(=O)O)CCN(CC(=O)O)C1 [DATA.QS.KuE]
LNCaP tumor
  kidney exposure/dose by comparison with PSMA-11: considerably lower
  tumor enrichment by comparison with PSMA-11: approximately the same

## CC[C@H](C)[C@@H]([C@@H](CC(=O)N1CCC[C@H]1[C@H](OC)[C@@H](C)C(=O)N[C@H](C)[C@@H](O)c1ccccc1)OC)N(C)C(=O)[C@@H](NC(=O)[C@@H](NC)C(C)C)C(C)C [MMAE, Monomethyl-auristatin E, reference compound] (H-[NMeV]V[Dil][Dolaproine]-X1)
LNCaP cells; Homo sapiens
  IC50: 0.29 ± 0.12 nM

## CCC(C)C(C(CC(=O)N1CCCC1C(OC)C(C)C(=O)NC(C)C(O)c1ccccc1)OC)N(C)C(=O)C(NC(=O)C(C(C)C)N(C)C(=O)OCc1ccc(NC(=O)C(CCCNC(N)=O)NC(=O)C(Nc2c(NCC3CCC(C(=O)NC(Cc4ccc5ccccc5c4)C(=O)NCCCCC(NC(=O)NC(CCC(=O)O)C(=O)O)C(=O)O)CC3)c(=O)c2=O)C(C)C)cc1)C(C)C (stereo not drawn) [MMAE.ValCit.QS.617.KuE]
PSMA
  IC50: 198.1 ± 1.9 nM
  Ki: 162 ± 3.3 nM
LNCaP cells; 72 hours
  cell cytotoxicity in vitro compared with pure active ingredient MMAE: somewhat lower
LNCaP cells
  IC50: 32.2 ± 5.7 nM

## O=C(O)CCC(NC(=O)NC(CCCCNC(=O)C(Cc1ccc2ccccc2c1)NC(=O)C1CCC(CNC(=O)CN2CCN(CC(=O)O)CCN(CC(=O)O)CCN(CC(=O)O)CC2)CC1)C(=O)O)C(=O)O (stereo not drawn) [PSMA-617, reference compound]
PSMA; LNCaP cells, competition with 68Ga[Ga]PSMA-10, 45 min incubation, calculated from inhibition curves, read-out: Ki (PSMA binding affinities)
  Ki: 12.3 ± 3.1 nM
PSMA; LNCaP cells, competition with 68Ga[Ga]PSMA-10, 45 min incubation, read-out: IC50 (PSMA binding affinities)
  IC50: 15.1 ± 3.8 nM
